From US12036228B2, “Treatment of seizure disorders” (Shackelford Pharma Inc., priority 2022, dated 2024)

Legend:
Format in all cases: in vivo
[1] = system: seizures in human patient; assay: Example 3 human patient, GTC and complex partial seizures
Excerpt: A patient first started having GTC and complex partial (CP) seizures. […] The patient was referred for evaluation for initiation of cannabinoid/THC treatment in March 2014.

[2] = system: seizures / EEG abnormalities in human patient; assay: Example 8 pediatric patient with atonic seizures, myoclonic seizures and Doose syndrome (24 hour EEG, seizures)
Procedure: They had continued to experience several seizures per day of all types despite multiple combination regimens of prescription anti-seizure medications and a trial of THC-A transdermal patch and CBD (Charlotte's Web) oral tincture and CBD transdermal patches up until the day they were first evaluated for cannabinoid treatment (age 4.5 on Mar. 8, 2016). […] They were then prescribed 1 mg oral THC tincture three times per day. On Mar. 8, 2018, the patient returned for follow-up where it was learned that all cannabinoids had been discontinued. […] The THC-A transdermal patch was restarted at 1.875 mg/day with a reduction in EEG abnormalities to 400/24 hours. Oral THC 2.5 mg BID was then restarted with a further reduction in EEG abnormalities to 20/24 hours. […] Due to the significant reduction in brain pre-seizure activity after restarting THC and concerns that there are effective dosage variations among transdermal products, the patient was then prescribed oral THC 2.5 mg BID which they continue to take.

[3] = system: GTC seizures in human patient; assay: Example 2 human patient, Dravet syndrome
Procedure: A patient first started having seizures and was subsequently diagnosed with Dravet syndrome. Initially, they were having clusters of 2 GTC seizures a day for 2 days occurring about every 2 weeks. Keppra was ineffective as were other combinations of anti-epileptic drugs. Several different combinations were tried and by the time they were first seen for evaluation for cannabinoid treatment on Aug. 7, 2014, they were taking Depakote 125 mg BID, Clonazepam 0.5 mg TID, and Versed/Diastat as needed for rescue but was still having clusters of GTC seizures every 2 weeks. The patient had started a CBD product on Jul. 3, 2014 (product analysis: 11.2 mg CBD/gm with 0.38 mg THC/gm at a dose of 0.7 mL TID (unknown concentration per mL), but seizures still were occurring irregularly—primarily GTC occurring in clusters of 1-2 per day every two weeks, rare atonic, and occasional eye-flutters.

[4] = system: seizures in human patient; assay: Example 8 pediatric patient with Lennox-Gastaut; settings: THC 8 mg BID (16 mg TDD) orally in combination with Epidiolex (CBD) 150 mg BID
Procedure: The other pediatric patient was a patient, diagnosed with Lennox-Gastout in 2008, suffered from multiple seizure types and went through corpus callosotomy in January 2017 after failure of vagus nerve stimulation (VNS). […] The patient was first evaluated for cannabinoid treatment on Aug. 3, 2017, and was prescribed CBD with 0.3% THC 10 mg BID (Charlotte's Web). […] After discharge from the hospital, the patient's GTCs worsened and were no longer responsive to felbamate. […] This patient was 35.45 kg, so the CBD daily dose was 3.3 mg/kg (well below the therapeutic dosages for Epidiolex). However patient was still having frequent tonic, myoclonic, and GTC seizures per day. […] When the dose was 300 mg Epidiolex daily, the patient was 40.5 kg, so the CBD daily dose was 7.4 mg/kg (below the therapeutic dosages for Epidiolex for Lennox Gastaut Syndrome).

[5] = system: GTC seizures in human patient; assay: Example 7 human patient, intractable GTC seizures; settings: 10 mg THC with 10 mg CBD orally daily at bedtime, with Trileptal and clonazepam
Excerpt: A patient was first diagnosed with intractable GTC seizures without status epilepticus in 2001.
The patient first presented for cannabinoid treatment on May 24, 2013. They were then a PhD student in economics. The patient's medical history is significant for having a car accident with a concussion and “scarring”. They developed GTC seizures occurring 3 times per month. […] In 2008, they started using recreational cannabis occasionally, but not regularly.

[6] = system: GTC seizures in human patient; assay: Example 4 human patient, idiopathic GTC seizures
Excerpt: A person's first evaluation for cannabinboid therapy was on Feb. 16, 2010. […] Initially in 2010, the patient was smoking cannabis in the day and taking a THC cannabis extract at night orally.

[7] = system: GTC seizures in human patient; assay: Example 5 human patient, GTC seizures caused by cerebral angioma
Excerpt: A patient first started having GTC seizures in 2007 which were caused by a cerebral angioma. […] The freedom from seizures allowed them to stop taking Lamictal, and the resolution of the medication side effects allowed them to return to work.

[8] = smoking cannabis during the day and 12.5 mg of THC orally at bedtime

Question: With CCCCCc1cc(O)c2c(c1)OC(C)(C)[C@@H]1CCC(C)=C[C@@H]21 [THC, Delta-9-tetrahydrocannabinol] as the compound, how does the seizure status ([1]; 20 milligrams THC cannabis extract liquid orally in the morning and 5 mg THC content pill in the evening) read?
Answer: The seizure status was “remained seizure free”.

Question: What about the seizure status ([1]; inhaled 16 mg cannabis wax in the morning and oral 20 milligrams THC cannabis extract liquid at night) of the same compound?
Answer: The seizure status was “seizure free”.

Question: What about the EEG abnormalities ([2]; Oral THC 2.5 mg BID restarted after THC-A patch) of the same compound?
Answer: Its EEG abnormalities is 20 /24 hours.

Question: And the observable seizures ([2]; Oral THC 2.5 mg BID with THC-A patch)?
Answer: The observable seizures was “no observable seizures”.

Question: What about the cognitive function ([3]; 20 mg CBD+20 mg THC TID regimen) of the same compound?
Answer: Its cognitive function is “significantly better”.

Question: What about the seizure-free duration ([3]; Depakote+Onfi+stiripentol+5 mg THC HS) of the same compound?
Answer: Its seizure-free duration is 15 months.

Question: And the “seizures after THC added back” value ([3]; THC 5 mg HS, CBD removed)?
Answer: The value was “improvement in the number and severity of all seizure types”.

Question: What about the “behavioral effect when used as rescue medication” value ([3]; THC applied to the oral mucosa) of the same compound?
Answer: The value was “no behavioral compromise”.

Question: And the “termination of seizures as rescue medication” value ([3]; THC applied to the oral mucosa, 6 non-convulsive seizures)?
Answer: Its value is “rapidly terminated”.

Question: And the “seizures when THC was dropped from the regimen” value ([3]; patient not receiving THC, Apr. 25 to Dec. 3, 2017)?
Answer: The value was “frequency and severity of all seizure types increased”.

Question: What about the “effect as rescue medication” value ([3]; two drops THC to gums) of the same compound?
Answer: The value was “rapid effect”.

Question: What about the effect on seizures [4] of the same compound?
Answer: Its effect on seizures is “further reduction in seizure frequency and duration”.

Question: And the seizures [5]?
Answer: The seizures was “no seizures since restarting cannabinoids”.

Question: What about the “seizures after resuming regimen” value ([6]; cannabis smoking during the day and THC cannabis extract orally at night) of the same compound?
Answer: The value was “the seizures stopped”.

Question: And the seizure control ([6]; inhaled and orally administered THC cannabis products, no anti-epileptic drugs)?
Answer: Its seizure control is “well controlled”.

Question: And the seizure status [6, 8]?
Answer: Its seizure status is “had no seizures”.

Question: What about the seizure-free period [6, 8] of the same compound?
Answer: Its seizure-free period is 4 years.

Question: What about the seizure status ([7]; only orally administered THC-infused confections and drinks) of the same compound?
Answer: Its seizure status is “still seizure-free”.

Question: And the seizure status ([7]; orally administered THC reduced from 150 milligrams to 70 mg at bedtime)?
Answer: The seizure status was “continued seizure freedom”.
